PubChem BioAssay AID330 (DTP/NCI, 2004)
Where “and” joins values, the source holds several entries; their conditions need not be identical. Equal values may be shown once. Toxic doses and inconclusive results are not listed. How the source made its calls: active means survival T/C of 150% or more; inactive means T/C below 125% in these data.

System: P388 leukemia ip, CD2F1 mice, survival T/C
Assay: NCI In Vivo Anticancer Drug Screen. Data for tumor model P388 Leukemia (intraperitoneal) in CD2F1 (CDF1) mice
Details: endpoint: median survival time, higher = longer survival
Method in brief: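 Mice carrying the transplanted tumor received test compound or vehicle. Survival was recorded in each group, and the value is the treated-group measurement divided by that of the vehicle-treated control group.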

[1] = dose: 50.0 mg/kg/injection, schedule: Q01DX009 (ip), vehicle: saline
[2] = dose: 100.0 mg/kg/injection, schedule: Q01DX009 (ip), vehicle: saline
[3] = dose: 200.0 mg/kg/injection, schedule: Q01DX009 (ip), vehicle: saline
[4] = dose: 60.0 mg/kg/injection, schedule: Q01DX005 (ip), vehicle: Klucel (hydroxypropylcellulose) (HPC)
[5] = dose: 120.0 mg/kg/injection, schedule: Q01DX005 (ip), vehicle: Klucel (hydroxypropylcellulose) (HPC)
[6] = dose: 240.0 mg/kg/injection, schedule: Q01DX005 (ip), vehicle: Klucel (hydroxypropylcellulose) (HPC)
[7] = dose: 60.0 mg/kg/injection, schedule: Q01DX005 (ip), vehicle: saline with Tween-80
[8] = dose: 120.0 mg/kg/injection, schedule: Q01DX005 (ip), vehicle: saline with Tween-80
[9] = dose: 240.0 mg/kg/injection, schedule: Q01DX005 (ip), vehicle: saline with Tween-80
[10] = dose: 50.0 mg/kg/injection, schedule: Q01DX009 (ip), vehicle: Klucel (hydroxypropylcellulose) (HPC)
[11] = dose: 100.0 mg/kg/injection, schedule: Q01DX009 (ip), vehicle: Klucel (hydroxypropylcellulose) (HPC)
[12] = dose: 200.0 mg/kg/injection, schedule: Q01DX009 (ip), vehicle: Klucel (hydroxypropylcellulose) (HPC)
[13] = dose: 50.0 mg/kg/injection, schedule: Q01DX009 (ip), vehicle: saline with Tween-80
[14] = dose: 100.0 mg/kg/injection, schedule: Q01DX009 (ip), vehicle: saline with Tween-80
[15] = dose: 200.0 mg/kg/injection, schedule: Q01DX009 (ip), vehicle: saline with Tween-80
[16] = dose: 25.0 mg/kg/injection, schedule: Q01DX009 (ip), vehicle: saline with Tween-80
[17] = dose: 30.0 mg/kg/injection, schedule: Q01DX005 (ip), vehicle: Klucel (hydroxypropylcellulose) (HPC)
[18] = dose: 50.0 mg/kg/injection, schedule: Q01DX005 (ip), vehicle: Klucel (hydroxypropylcellulose) (HPC)
[19] = dose: 100.0 mg/kg/injection, schedule: Q01DX005 (ip), vehicle: Klucel (hydroxypropylcellulose) (HPC)
[20] = dose: 200.0 mg/kg/injection, schedule: Q01DX005 (ip), vehicle: Klucel (hydroxypropylcellulose) (HPC)

Measured: T/C

COc1ccccc1-n1s/c(=N\OC(=O)c2sc3ccccc3c2Cl)sc1=S
inactive: [1] 93 % of control | [2] 94 % of control | [3] 94 % of control

CCOC1(OCC)CC(c2ccccc2)c2cnn(-c3ccccc3)c2O1 (stereo not given)
inactive: [4] 92 % of control | [5] 93 % of control | [6] 87 % of control

Cc1ccc(NC(=O)/C(Cl)=C(\Cl)C(=O)O)cc1C
inactive: dose: 3.75 mg/kg/injection, schedule: Q01DX005 (ip), vehicle: saline with Tween-80 96 % of control | dose: 7.5 mg/kg/injection, schedule: Q01DX005 (ip), vehicle: saline with Tween-80 102 % of control | dose: 15.0 mg/kg/injection, schedule: Q01DX005 (ip), vehicle: saline with Tween-80 103 % of control and 110 % of control | [7] 104 % of control

Nc1ccc(C(=O)Oc2ccc([N+](=O)[O-])cc2)cc1
inactive: dose: 100.0 mg/kg/injection, schedule: Q04DX003 (ip), vehicle: saline with Tween-80 95 % of control | dose: 200.0 mg/kg/injection, schedule: Q04DX003 (ip), vehicle: saline with Tween-80 90 % of control

CCc1ccc(NS(=O)(=O)c2ccc(F)cc2)cc1
inactive: [7] 104 % of control | [8] 104 % of control | [9] 96 % of control

CCC[As](=O)(O)CCC
inactive: dose: 20.0 mg/kg/injection, schedule: Q01DX009 (ip), vehicle: saline 100 % of control | dose: 25.0 mg/kg/injection, schedule: Q04DX003 (ip), vehicle: saline 86 % of control | dose: 30.0 mg/kg/injection, schedule: Q01DX009 (ip), vehicle: saline 100 % of control | dose: 45.0 mg/kg/injection, schedule: Q01DX009 (ip), vehicle: saline 113 % of control | dose: 50.0 mg/kg/injection, schedule: Q04DX003 (ip), vehicle: saline 109 % of control | dose: 100.0 mg/kg/injection, schedule: Q04DX003 (ip), vehicle: saline 90 % of control

Cc1ccccc1C1(C)C(=O)c2ccccc2C1=O
inactive: dose: 100.0 mg/kg/injection, schedule: Q04DX002 (ip), vehicle: saline 101 % of control | dose: 200.0 mg/kg/injection, schedule: Q04DX002 (ip), vehicle: saline 106 % of control | dose: 400.0 mg/kg/injection, schedule: Q04DX002 (ip), vehicle: saline 100 % of control

Clc1ccc(N=Cc2cccs2)cc1Cl
inactive: [10] 110 % of control | [11] 107 % of control | [12] 110 % of control

C[N+]1=C2CCCCCC2=C(N)CC1
inactive: dose: 3.13 mg/kg/injection, schedule: Q04DX003 (ip), vehicle: saline 100 % of control | dose: 6.25 mg/kg/injection, schedule: Q04DX003 (ip), vehicle: saline 104 % of control | dose: 12.5 mg/kg/injection, schedule: Q04DX003 (ip), vehicle: saline 100 % of control

COc1cc(C(=O)N/N=C/c2cccc3ccccc23)ccc1O
inactive: [13] 86 % of control | [14] 90 % of control | [15] 90 % of control

C/C(N=NC(=S)N1CCCC1)=C1\C=CC=CN1O
inactive: dose: 50.0 mg/kg/injection, schedule: Q01DX005 (ip), vehicle: saline with Tween-80 106 % of control | dose: 100.0 mg/kg/injection, schedule: Q01DX005 (ip), vehicle: saline with Tween-80 103 % of control | dose: 200.0 mg/kg/injection, schedule: Q01DX005 (ip), vehicle: saline with Tween-80 112 % of control

NC(=O)C(N)CCc1ccccc1 (stereo not given)
inactive: [7] 100 % of control | [8] 102 % of control | [9] 96 % of control

O=S(=O)(N=N/C=C1\C=CC=CN1O)c1cccs1
inactive: dose: 50.0 mg/kg/injection, schedule: Q04DX002 (ip), vehicle: saline with Tween-80 100 % of control | dose: 600.0 mg/kg/injection, schedule: Q04DX002 (ip), vehicle: saline with Tween-80 117 % of control

CC(=O)c1c(Br)c2c3ccccc3c3ccccc3n2c1C
inactive: [7] 107 % of control | [8] 106 % of control | [9] 92 % of control

O=C(O)C(Cc1cnc[nH]1)[N-]C[N-]C(Cc1cnc[nH]1)C(=O)O.[Pd+2] (stereo not given)
inactive: dose: 50.0 mg/kg/injection, schedule: Q01DX005 (ip), vehicle: saline 100 % of control | dose: 100.0 mg/kg/injection, schedule: Q01DX005 (ip), vehicle: saline 97 % of control | dose: 200.0 mg/kg/injection, schedule: Q01DX005 (ip), vehicle: saline 100 % of control

O=C1Cc2ccccc2C(=O)N1CCN1CCOCC1
inactive: dose: 100.0 mg/kg/injection, schedule: Q01DX001 (ip), vehicle: saline 101 % of control | dose: 200.0 mg/kg/injection, schedule: Q01DX001 (ip), vehicle: saline 108 % of control

O=C1/C(=C/c2ccccc2)CCC/C1=C\c1ccccc1
inactive: [16] 104 % of control | [13] 104 % of control | [14] 100 % of control

CCOC(=O)c1c[nH]c2ccc3c(nc(C)n3C)c2c1=O
inactive: [17] 102 % of control and 91 % of control | [4] 103 % of control and 110 % of control and 91 % of control | [5] 112 % of control (2×) and 113 % of control | [6] 115 % of control and 122 % of control and 123 % of control

CCOC(=O)C1CC1C1=C(C)c2cc3[n-]c(cc4nc(cc5[n-]c(cc1n2)c(C)c5CCC(=O)OC)C(CCC(=O)OC)=C4C)c(C)c3C1CC1C(=O)OCC.[Cl-].[Fe+3] (stereo not given)
inactive: [18] 102 % of control | [19] 86 % of control | [20] 100 % of control

N#Cc1ccc(N=Cc2ccc(C=Nc3ccc(C#N)c(C#N)c3)cc2)cc1C#N
inactive: dose: 12.5 mg/kg/injection, schedule: Q01DX009 (ip), vehicle: saline with Tween-80 93 % of control | [16] 104 % of control | [13] 88 % of control | [14] 87 % of control | [15] 97 % of control

COc1ccc(-n2c(SCC(=O)NC(=O)Nc3ccccc3)nc3c(Br)cc(Br)cc3c2=O)cc1
inactive: dose: 7.5 mg/kg/injection, schedule: Q01DX005 (ip), vehicle: Klucel (hydroxypropylcellulose) (HPC) 97 % of control | dose: 15.0 mg/kg/injection, schedule: Q01DX005 (ip), vehicle: Klucel (hydroxypropylcellulose) (HPC) 92 % of control | [17] 86 % of control and 94 % of control | [5] 90 % of control | [6] 101 % of control

O=c1c2ccccc2c(=O)c2c1cc(Cl)c1[nH]c3c([nH]c12)c(Cl)cc1c(=O)c2ccccc2c(=O)c13
inactive: [18] 97 % of control | [19] 96 % of control | [20] 94 % of control

CC1Cc2c([nH]c3ccccc3c2=O)O1 (stereo not given)
inactive: [1] 93 % of control | [2] 101 % of control | [3] 100 % of control

N#CC(C#N)=NNc1ccc([N+](=O)[O-])cc1Cl
inactive: dose: 6.25 mg/kg/injection, schedule: Q01DX009 (ip), vehicle: Klucel (hydroxypropylcellulose) (HPC) 103 % of control | dose: 12.5 mg/kg/injection, schedule: Q01DX009 (ip), vehicle: Klucel (hydroxypropylcellulose) (HPC) 103 % of control

COc1ccc(NC(=O)c2sc(SC)nc2N)cc1
inactive: [10] 100 % of control | [11] 98 % of control | [12] 97 % of control
